Like-named read-outs stand apart in the source and are kept apart here.
Assays:
[1] = Blood stability, human; type: in vitro ADME; conditions: plasma, n=3
Method: (§1) Plasma from mice, rats, rabbits, and humans was obtained from blood after centrifugation at 3000 r/min for 10 min. Simulated gastric fluid (SGF, pH = 1, containing pepsin) and simulated intestinal fluid (SIF, pH = 6.8, containing trypsin) were configured previously in the experiments. SD rats and mice were collected, and after removing the mucus layer from the small intestine and colon, 20 times the volume of liquid bacterial culture medium was added. An intestinal microbiota suspension was obtained after anaerobic cultivation on a shaking table at 37 °C for 12 h. In the aforementioned systems, E3 was added at a final concentration of 1 μmol/L at 37 °C for different incubation times (0, 10, 20, 30, 60, 120, and 240 min). In liver metabolic stability assays, E3 was incubated with liver microsomes or liver homogenate from mice or rats for 60 min at 37 °C. The stop solution, 5 ng/mL tolbutamide (internal standard, IS) in acetonitrile, was added to stop the metabolic process. Post-centrifugation (18,000× g, 10 min, 4 °C), supernatants were subjected to liquid chromatography–tandem mass spectrometry (LC–MS/MS). Analyte-to-IS peak area ratios quantified residual percentages via Equation (2):Remaining% = (E3peak area/ISpeak area at different time)/(E3peak area/ISpeak area at 0 min) × 100%.(2)

[2] = test system: mice; assay: Acute oral toxicity test in mice; type: in vivo
Method: (§2) The acute oral toxicity test was performed according to “Guidance on Single Dose Toxicity Study for Pharmaceuticals” (2014), “Guidance for industry: single dose acute toxicity testing for pharmaceuticals” (1996). The initial dose for preliminary trials was established at 5000 mg/kg. A total of three female and three male mice were utilized (one of each sex for preliminary experiments and two for subsequent experiments). Following a 12 h fasting period, one male and one female mouse were selected and administered E3. After 24 h of confirming survival and the absence of abnormal behavior, the remaining four animals were given the same dose. The control group was given solvent (0.5% CMC-Na). Observations of all animals on the day of dosing (d 0) and in the days following were recorded, including general conditions (signs of toxicity, onset of symptoms, recovery period), changes in body weight, and mortality. After 14 d, blood and vital organ tissues were collected, and serum biochemical indicators as well as histopathological examinations were conducted.

[3] = Acute oral toxicity test in mice; type: in vivo; conditions: both sexes, mouse, in vivo, 5000 mg/kg; mice; oral; 14-day acute toxicity assay
Method: as §2

[4] = Blood stability, mouse; type: in vitro ADME; conditions: plasma, n=3
Method: as §1

[5] = target: T1, hERG K+ channel (Homo sapiens, UniProt Q12809); assay: hERG K+ channel tail current, QPatch, CHO-hERG cells; type: cell-based
T1 construct: expressed in transfected cells; host or cells: CHO-hERG cells
Method: CHO-hERG cells were maintained in F12 medium (Gibco, Thermo Fisher Scientific, Waltham, MA, USA) containing 10% FBS and 0.5 mg/mL Geneticin (Invitrogen, Thermo Fisher Scientific, Waltham, MA, USA) under standard culture conditions (37 °C, 5% CO2). Cells were seeded 2 days prior to reaching 70% confluency, then washed with PBS and detached using 5 mL Detachin (Genlantis, San Diego, CA, USA) at 37 °C for 2~3 min. Cell suspensions (2 × 10^6 cells/mL in F12) were prepared and equilibrated for 20 min in the QStir station of the QPatch-16 system (Sophion Bioscience, Copenhagen, Denmark) before electrophysiological recordings.
hERG channel tail currents were assessed using the QPatch automated platform. Recording solutions contained (mM): Internal: KCl 120, CaCl2 5.374, MgCl2 1.75, KOH 31.25, EGTA 10, HEPES 10, Na2ATP 4 (pH 7.2); External: NaCl 145, KCl 4, MgCl2 1, CaCl2 2, HEPES 10, glucose 10 (pH 7.4)
Cells were voltage-clamped at −80 mV with series resistance monitored during −100 mV hyperpolarization. The stimulation protocol included: (1) 200 ms baseline at −50 mV; (2) 2s depolarization to +20 mV; and (3) tail current recording at −50 mV. Signals were acquired at 2 kHz through the integrated Bessel filter. Concentration-response relationships were established by sequential compound applications bracketed with saline controls for normalization.

[6] = target: T2, UT-B (Mus musculus, UniProt Q8VHL0); assay: Erythrocyte lysis assay for UT-B inhibition, mouse erythrocytes; type: cell-based
T2 construct: endogenous in cells; host or cells: erythrocytes from wild-type C57BL/6 mice
T2 sequence (Q8VHL0 1-384): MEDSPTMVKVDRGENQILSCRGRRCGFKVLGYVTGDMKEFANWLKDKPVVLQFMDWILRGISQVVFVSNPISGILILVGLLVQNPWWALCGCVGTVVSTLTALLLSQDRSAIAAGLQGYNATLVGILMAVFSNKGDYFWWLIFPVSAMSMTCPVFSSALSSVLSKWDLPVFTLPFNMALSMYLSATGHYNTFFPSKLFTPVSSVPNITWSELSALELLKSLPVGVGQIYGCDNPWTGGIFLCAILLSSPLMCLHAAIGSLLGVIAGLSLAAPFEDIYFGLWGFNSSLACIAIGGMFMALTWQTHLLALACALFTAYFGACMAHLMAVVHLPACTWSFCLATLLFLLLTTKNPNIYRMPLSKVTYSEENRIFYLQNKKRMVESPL
Method: The erythrocyte lysis assay was modified from a method described previously. Erythrocytes obtained from veins were diluted to a hematocrit value of 2% in hyperosmolar PBS containing 1.25 mol/L urea and 5 mmol/L glucose and incubated at r.t. for 2 h. Then, 99 μL erythrocyte suspension from a reservoir was added to each well of a 96-well round-bottom microplate, then 1 μL of the testing compound (500, 125, 31.25, 7.81, 1.95, 0.488, 0.122, 0.031, 0.0076 μmol/L dissolved in DMSO) was added to erythrocyte suspension and shook it up with microoscillator for 1 min. Following 5 min incubation, 20 μL erythrocyte suspension was transferred into 96-well black microplates preloaded with 180 μL isotonic PBS (10 mM, urea-free). Erythrocyte lysis was monitored at 710 nm optical density (OD710) for 6 min, with lysis rates calculated using control values from the same plate as Equation (1):Lysis (%) = 100 × (Aneg − Atest)/(Aneg − Apos)(1) where Atest is the absorbance value from the test well, Aneg is from a negative no-lysis control well, and Apos is from a positive full-lysis control.

T1 sequence (Q12809 whole entry): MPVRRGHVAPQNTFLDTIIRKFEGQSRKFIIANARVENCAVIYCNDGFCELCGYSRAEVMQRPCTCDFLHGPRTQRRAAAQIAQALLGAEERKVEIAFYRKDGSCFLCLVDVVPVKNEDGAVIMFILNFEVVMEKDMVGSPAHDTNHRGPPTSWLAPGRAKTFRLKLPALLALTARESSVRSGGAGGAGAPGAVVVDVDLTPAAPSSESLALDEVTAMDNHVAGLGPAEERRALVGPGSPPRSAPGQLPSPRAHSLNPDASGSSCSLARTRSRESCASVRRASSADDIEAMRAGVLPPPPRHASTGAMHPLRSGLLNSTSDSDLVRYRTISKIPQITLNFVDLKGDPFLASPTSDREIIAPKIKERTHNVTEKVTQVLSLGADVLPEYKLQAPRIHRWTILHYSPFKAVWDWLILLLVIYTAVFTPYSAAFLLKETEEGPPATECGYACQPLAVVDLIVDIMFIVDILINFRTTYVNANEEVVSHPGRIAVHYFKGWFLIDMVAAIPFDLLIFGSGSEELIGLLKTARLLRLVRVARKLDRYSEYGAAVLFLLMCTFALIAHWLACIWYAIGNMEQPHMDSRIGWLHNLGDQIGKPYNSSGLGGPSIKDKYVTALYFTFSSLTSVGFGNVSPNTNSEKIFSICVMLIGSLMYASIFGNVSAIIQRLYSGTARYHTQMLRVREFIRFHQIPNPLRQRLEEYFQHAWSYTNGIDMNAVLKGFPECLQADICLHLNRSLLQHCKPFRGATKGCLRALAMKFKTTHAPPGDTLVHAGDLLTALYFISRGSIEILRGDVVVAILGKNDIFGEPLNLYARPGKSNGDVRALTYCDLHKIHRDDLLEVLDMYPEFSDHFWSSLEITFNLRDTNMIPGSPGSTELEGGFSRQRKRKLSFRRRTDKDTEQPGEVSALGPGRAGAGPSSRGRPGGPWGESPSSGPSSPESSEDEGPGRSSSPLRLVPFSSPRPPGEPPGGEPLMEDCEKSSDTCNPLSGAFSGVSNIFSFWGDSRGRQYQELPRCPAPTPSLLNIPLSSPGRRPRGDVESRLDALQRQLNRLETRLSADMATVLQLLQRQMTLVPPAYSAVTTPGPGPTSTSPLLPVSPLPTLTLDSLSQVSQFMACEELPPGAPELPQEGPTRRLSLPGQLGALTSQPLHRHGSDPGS

CC(=O)c1ccc(C(=O)Nc2cccc(NS(=O)(=O)c3ccccc3)c2)o1 [Compound E3, 5-acetyl-N-(3-(phenylsulfonamido)phenyl)furan-2-carboxamide]
remaining at 1 μmol/L [1]: 54.1%
Brain organ index ([2]; female mice, 5g/kg, n=3): 1.72±0.10%
Kidney organ index ([2]; female mice, 5g/kg, n=3): 1.06±0.02%
Liver organ index ([2]; female mice, 5g/kg, n=3): 4.86±0.08%
Lung organ index ([2]; female mice, 5g/kg, n=3): 0.73±0.04%
Ovary organ index ([2]; female mice, 5g/kg, n=3): 0.11±0.02%
Spleen organ index ([2]; female mice, 5g/kg, n=3): 0.4±0.01%
Thymus organ index ([2]; female mice, 5g/kg, n=3): 0.27±0.06%
Uterus organ index ([2]; female mice, 5g/kg, n=3): 0.3±0.02%
Brain organ index ([2]; male mice, 5g/kg, n=3): 1.35±0.01%
Epididymis organ index ([2]; male mice, 5g/kg, n=3): 0.17±0.01%
Kidney organ index ([2]; male mice, 5g/kg, n=3): 1.26±0.02%
Liver organ index ([2]; male mice, 5g/kg, n=3): 5.16±0.12%
Lung organ index ([2]; male mice, 5g/kg, n=3): 0.72±0.02%
Spleen organ index ([2]; male mice, 5g/kg, n=3): 0.37±0.02%
Testis organ index ([2]; male mice, 5g/kg, n=3): 0.73±0.02%
Thymus organ index ([2]; male mice, 5g/kg, n=3): 0.25±0.01%
H&E staining of heart, kidney, liver, spleen, and brain ([2]; mouse, in vivo, po, 5000 mg/kg): no apparent abnormalities
organ indexes ([2]; mouse, in vivo, po, 5000 mg/kg): no significant difference
representative blood biochemical indicators ([2]; mouse, in vivo, po, 5000 mg/kg): not statistically altered
LD50 at 14 d [3]: > 5000 mg/kg
remaining at 1 μmol/L [4]: 45.3%
IC50 [5]: > 33300 nM
maximum inhibition rate, mouse cells ([6]; erythrocyte lysis assay): approximately 100%
IC50 ([6]; erythrocyte lysis model, mouse, n = 3, means, read-out: IC50 (μM) Mouse): 0.05 µM
IC50 ([6]; red blood cell lysis assay, read-out: IC50 for UT-B-promoted urea transport, mice): 0.0477 µM

Source: article PMC12024912, “Druggability Studies of Benzene Sulfonamide Substituted Diarylamide (E3) as a Novel Diuretic” (Biomedicines, 2025)
